Experimental data from ChEMBL document CHEMBL2203043, “Carbonic anhydrase inhibitors. Regioselective synthesis of novel series 1-substituted 1,4-dihydro-4-oxo-3-pyridinesulfonamides and their inhibition of the human cytosolic isozymes I and II and transmembrane cancer-associated isozymes IX and XII” (Eur J Med Chem, 2012).

These molecules were tested against Carbonic anhydrase 9 (Homo sapiens, UniProt Q16790) (assay: Inhibition of human CA9 after 15 mins by stopped-flow CO2 hydrase assay).

Question: How did the Ki turn out when `NS(=O)(=O)c1cn(CC(=O)NS(=O)(=O)c2ccccc2Cl)ccc1=O` was run?
Answer: The Ki was 29.7 nM.

Question: For `NS(=O)(=O)c1cn(Cc2nc3ccccc3c(=O)n2-c2ccccc2)ccc1=O`, which Ki is on record?
Answer: The Ki was 76.2 nM.

Question: Which Ki does the source give for `NS(=O)(=O)c1cn(CC2CC2)ccc1=O` here?
Answer: Its Ki is 85.1 nM.

Question: Which Ki does the source give for `NS(=O)(=O)c1cn(Cc2nc3ccccc3c(=O)n2-c2ccc(Cl)cc2)ccc1=O` here?
Answer: The Ki was 71.2 nM.

Question: How did the Ki turn out when `N#CCCCn1ccc(=O)c(S(N)(=O)=O)c1` was run?
Answer: The Ki was 67.2 nM.

Question: For `CCN(c1ccccc1)c1nc(N)nc(Cn2ccc(=O)c(S(N)(=O)=O)c2)n1`, which Ki is on record?
Answer: Its Ki is 50.1 nM.

Question: With `NS(=O)(=O)c1cn(CC(=O)Nc2cccc([N+](=O)[O-])c2)ccc1=O` as the molecule, how does the Ki read?
Answer: Its Ki is 33.4 nM.

Question: For `Nc1nc(Cn2ccc(=O)c(S(N)(=O)=O)c2)nc(N2CCOCC2)n1`, which Ki is on record?
Answer: Its Ki is 72.5 nM.

Question: For `COC(=O)c1ccccc1NC(=O)Cn1ccc(=O)c(S(N)(=O)=O)c1`, which Ki is on record?
Answer: The Ki was 86.4 nM.

Question: With `Cc1ccc(S(=O)(=O)NNC(=O)Cn2ccc(=O)c(S(N)(=O)=O)c2)cc1` as the molecule, how does the Ki read?
Answer: Its Ki is 11.8 nM.

Question: How did the Ki turn out when `Cc1ccc(-n2c(Cn3ccc(=O)c(S(N)(=O)=O)c3)nc3ccccc3c2=O)cc1` was run?
Answer: The Ki was 70.3 nM.

Question: With `Cc1noc(C)c1Cn1ccc(=O)c(S(N)(=O)=O)c1` as the molecule, how does the Ki read?
Answer: The Ki was 23.1 nM.

Question: With `CC1=NN(c2nc(N)nc(Cn3ccc(=O)c(S(N)(=O)=O)c3)n2)CC1` as the molecule, how does the Ki read?
Answer: Its Ki is 77.8 nM.

Question: How did the Ki turn out when `NS(=O)(=O)c1cn(CC(=O)NS(=O)(=O)c2ccc([N+](=O)[O-])cc2)ccc1=O` was run?
Answer: The Ki was 65.2 nM.

Question: For `NS(=O)(=O)c1cn(CC(=O)Nc2ccc(Cl)c([N+](=O)[O-])c2)ccc1=O`, which Ki is on record?
Answer: Its Ki is 60.6 nM.

Question: For `CCOC(=O)Cn1ccc(=O)c(S(N)(=O)=O)c1`, which Ki is on record?
Answer: The Ki was 60.1 nM.

Question: Which Ki does the source give for `NS(=O)(=O)c1cn(CC(=O)NNC(=O)c2ccco2)ccc1=O` here?
Answer: The Ki was 56.1 nM.

Question: Which Ki does the source give for `NS(=O)(=O)c1cn(CC(=O)Nc2ccc(Cl)cc2)ccc1=O` here?
Answer: The Ki was 93.4 nM.

Question: Which Ki does the source give for `NS(=O)(=O)c1cn(CCO)ccc1=O` here?
Answer: The Ki was 54.7 nM.

Question: With `CC1=NN(c2nc(N)nc(Cn3ccc(=O)c(S(N)(=O)=O)c3)n2)C(C)(C)C1` as the molecule, how does the Ki read?
Answer: The Ki was 66.3 nM.

Question: With `CN(C)c1nc(N)nc(Cn2ccc(=O)c(S(N)(=O)=O)c2)n1` as the molecule, how does the Ki read?
Answer: The Ki was 16.5 nM.

Question: With `Cc1cccc(C)c1NC(=O)Cn1ccc(=O)c(S(N)(=O)=O)c1` as the molecule, how does the Ki read?
Answer: Its Ki is 17.3 nM.

Question: For `NS(=O)(=O)c1cn(CC(=O)NS(=O)(=O)c2ccc(Cl)cc2)ccc1=O`, which Ki is on record?
Answer: The Ki was 38.6 nM.

Species on record: Homo sapiens
Experiment: Selectivity ratio of Ki for human CA2 to Ki for human CA9

Question: With `CC(=O)/N=c1/sc(S(N)(=O)=O)nn1C` as the molecule, how does the Ratio Ki read?
Answer: The Ratio Ki was 0.33.

Question: Which Ratio Ki does the source give for `NS(=O)(=O)c1cc(Cl)c(Cl)c(S(N)(=O)=O)c1` here?
Answer: Its Ratio Ki is 0.33.

Question: `NS(=O)(=O)c1ccc(S(=O)(=O)Nc2cccc3c(Cl)c[nH]c23)cc1` was tested. Which Ratio Ki did it give?
Answer: Its Ratio Ki is 0.33.

Question: For `CCOc1ccc2nc(S(N)(=O)=O)sc2c1`, which Ratio Ki is on record?
Answer: Its Ratio Ki is 0.33.

Question: `CC(=O)Nc1nnc(S(N)(=O)=O)s1` was tested. Which Ratio Ki did it give?
Answer: The Ratio Ki was 0.33.
